The source made the active and inactive calls. The calls are words filed in the database; no cut-off is given here.
Assays:
Rattus norvegicus [1] = experiment: Inhibition of testosterone propionate-induced castrated Wistar rat benign prostatic hyperplasia model assessed as decrease in seminal vesicles weight at 50 mg/kg, iv for 14 days; type: functional, organism-based; set-up: dose 50 mg/kg; conditions: Wister
Rattus norvegicus [2] = experiment: Inhibition of testosterone propionate-induced castrated Wistar rat benign prostatic hyperplasia model assessed as decrease in seminal vesicles weight at 2 mg/kg, iv for 14 days; type: functional, organism-based; set-up: dose 2 mg/kg; conditions: Wister
[3] = molecular target: T1, 3-oxo-5-alpha-steroid 4-dehydrogenase 2 (Rattus norvegicus, UniProt P31214); experiment: Inhibition of rat 5-alpha-reductase type 2 by Lineweaver-Burk plot
T1 sequence (P31214 whole entry): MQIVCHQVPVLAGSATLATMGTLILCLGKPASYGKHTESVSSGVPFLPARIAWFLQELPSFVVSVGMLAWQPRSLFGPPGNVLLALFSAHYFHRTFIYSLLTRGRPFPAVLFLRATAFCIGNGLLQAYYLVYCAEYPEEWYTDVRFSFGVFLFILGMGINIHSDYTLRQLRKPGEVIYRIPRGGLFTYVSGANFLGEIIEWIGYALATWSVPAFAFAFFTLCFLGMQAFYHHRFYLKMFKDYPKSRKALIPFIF

Rattus norvegicus [4] = experiment: Toxicity in testosterone propionate-induced castrated Wistar rat benign prostatic hyperplasia model assessed as vital signs at 10 mg/kg, iv […]; type: organism-based, Wister; set-up: dose 10 mg/kg, route intravenous; conditions: in vivo
Rattus norvegicus [5] = experiment: Toxicity in testosterone propionate-induced castrated Wistar rat benign prostatic hyperplasia model assessed as body weight at 2 to 50 mg/kg, iv for 14 days; type: organism-based, Wister; set-up: dose 2-50 mg/kg, route intravenous; conditions: in vivo, 336 h
Rattus norvegicus [6] = experiment: Inhibition of testosterone propionate-induced castrated Wistar rat benign prostatic hyperplasia model assessed as decrease in hyperplasia of interstitial tissues at 10 mg/kg, iv by histochemistry; type: functional, organism-based; set-up: dose 10 mg/kg; conditions: Wister
Rattus norvegicus [7] = experiment: Inhibition of testosterone propionate-induced castrated Wistar rat benign prostatic hyperplasia model assessed as decrease in pseudostratified epithelia at 10 mg/kg, iv by histochemistry; type: functional, organism-based; set-up: dose 10 mg/kg; conditions: Wister
Rattus norvegicus [8] = experiment: Inhibition of testosterone propionate-induced castrated Wistar rat benign prostatic hyperplasia model assessed as decrease in seminal vesicles weight at 10 mg/kg, iv for 14 days; type: functional, organism-based; set-up: dose 10 mg/kg; conditions: Wister
Rattus norvegicus [9] = experiment: Inhibition of testosterone propionate-induced castrated Wistar rat benign prostatic hyperplasia model assessed as decrease in prostate weight at 2 mg/kg, iv for 14 days; type: functional, organism-based; set-up: dose 2 mg/kg; conditions: Wister, Prostate gland
Rattus norvegicus [10] = experiment: Inhibition of testosterone propionate-induced castrated Wistar rat benign prostatic hyperplasia model assessed as decrease in epithelial protrusions at 10 mg/kg, iv by histochemistry; type: functional, organism-based; set-up: dose 10 mg/kg; conditions: Wister
Rattus norvegicus [11] = experiment: Inhibition of testosterone propionate-induced castrated Wistar rat benign prostatic hyperplasia model assessed as decrease in prostate weight at 10 mg/kg, iv for 14 days; type: functional, organism-based; set-up: dose 10 mg/kg; conditions: Wister, Prostate gland
Rattus norvegicus [12] = experiment: Inhibition of testosterone propionate-induced castrated Wistar rat benign prostatic hyperplasia model assessed as prostate gland arrangement order at 10 mg/kg, iv by histochemistry; type: functional, organism-based; set-up: dose 10 mg/kg; conditions: Wister
Rattus norvegicus [13] = experiment: Inhibition of testosterone propionate-induced castrated Wistar rat benign prostatic hyperplasia model assessed as decrease in prostate weight at 50 mg/kg, iv for 14 days; type: functional, organism-based; set-up: dose 50 mg/kg; conditions: Wister, Prostate gland

IC50 [3] [µM] | SMILES | inhibition (Rattus norvegicus [1]) | inhibition (Rattus norvegicus [2]) | Activity (Rattus norvegicus [4]) | Activity (Rattus norvegicus [5]) | inhibition (Rattus norvegicus [6]) | inhibition (Rattus norvegicus [7]) | inhibition (Rattus norvegicus [8]) | inhibition (Rattus norvegicus [9]) | inhibition (Rattus norvegicus [10]) | inhibition (Rattus norvegicus [11]) | inhibition (Rattus norvegicus [12]) | inhibition (Rattus norvegicus [13])
0.088 | CC(C)(C)N(C(=O)C1CSCN1C(=O)C1CCC(=O)N1)C(=O)[C@H]1CC[C@H]2[C@@H]3CC[C@H]4NC(=O)C=C[C@]4(C)[C@H]3CC[C@]12C (stereo partly specified) | Active | Active | Non-toxic | Non-toxic | Active | Active | Active | Active | Active | Active | Active | Active
0.147 | CC(C)(C)NC(=O)[C@H]1CC[C@H]2[C@@H]3CC[C@H]4NC(=O)C=C[C@]4(C)[C@H]3CC[C@]12C [FINASTERIDE] | – | – | – | Non-toxic | Active | Active | Active | – | Active | Active | Active | –
